What was measured:
Type in all cases: in vivo
[1] = system: termite (Reticulitermes flavipes) workers; test: Test to Determine Termite Mortality by Applications of Combinations of Bifenthrin and Imidacloprid (soil column in glass tube)
Procedure: (§1) The compositions of the present invention were tested for termiticide activity in the following manner:
Test compositions made up of TALSTAR® TERMITICIDE/INSECTICIDE and a wettable powder of imidacloprid in distilled water were prepared that provided appropriate rates of application of combinations of bifenthrin and imidacloprid, as well as bifenthrin and imidacloprid alone.
(§2) Glass tubing, 13 mm in diameter, was then cut into 20 cm sections in sufficient quantity to conduct the test. Each […] section of tubing was marked at 5 cm, 8 cm, and 18 cm distances from one end of the tube designated as the bottom. Each section of tubing was packed with a sandy soil (3% wt/wt moisture content) by first placing a section of a 1 cm diameter wooden dowel into the bottom of the glass tube up to the 8 cm marking, then introducing approximately 2 cm of soil into the other end of the tube designated as the top. The soil was then gently packed into the tube from the top using a second section of the 1 cm diameter wooden dowel. The process was repeated using 2 cm aliquots of soil until the soil level was adjacent to the 18 cm marking, thereby providing a column of soil 10 cm in height. An agar plug, which was formed in a section of the 13 mm diameter glass tubing of the type used to conduct these tests, was cut into 3 cm sections. A 3 cm section of agar was then gently pushed into the bottom of each tube containing the soil until the agar plug firmly touched the soil at the 8 cm marking, thereby creating a 5 cm void in the bottom of each section of tubing. Following placement of the agar plugs in each section of tubing; two sections of applicator sticks cut in 6 cm lengths were inserted into the bottom end of each tube thereby forcing about 1 cm of each stick into the agar plug to hold the agar plug in place. Plastic caps, with an inside diameter of 13 mm and holes drilled in their centers, were placed on the bottom ends of each of the sections of tubing. A sharpened applicator stick was then inserted into the hole in each plastic cap through the agar plug to the intersection of the agar plug and the soil. The applicator stick was then gently removed in a rotating manner to provide a means for a free flow of liquid through the soil. Each section of tubing was then stood upright, and 0.5 mL aliquots of each suspension of bifenthrin, imidacloprid or combinations thereof, as prepared above, were pipetted onto the top of the soil. Upon application of the test suspensions the top of each section of tubing was covered with a small piece of aluminum foil. The tubes were then allowed to stand for about 20 hours to allow movement of the termiticide(s) downward into the soil. After this time a plastic cap of 13 mm inside diameter was placed on the top of each section of tubing. The plastic caps with the holes drilled in their centers were removed from the bottom of each section of tubing, and a piece of 0.5 cm×4 cm filter paper was then placed between the two sections of applicator sticks. Fifty termite (Reticulitermes flavipes) workers were then inserted into the 5 cm void in the bottom of each section of tubing. New plastic caps without holes drilled in their centers were placed on the bottom of each section of tubing. The sections of tubing were then stored in an upright position, with the termites located below the soil. Termite mortality was measured at 1 hour, 2 hours, 1 day, 2 days and 7 days after treatment.

[2] = system: termite (Reticulitermes flavipes) workers; test: Test to Determine Termite Mortality by Applications of Combinations of Bifenthrin and Clothianadin (soil column in glass tube)
Procedure: as §1
Test compositions made up of TALSTAR® TERMITICIDE/INSECTICIDE and a wettable powder of clothianadin in distilled water were prepared that provided appropriate rates of application of combinations of bifenthrin and clothianadin, as well as bifenthrin and clothianadin alone.
as §2, with “clothianadin” for “imidacloprid”

[3] = system: termite (Reticulitermes flavipes) workers; test: Test to Determine Termite Mortality by Applications of Combinations of Bifenthrin and Thiamethoxam (soil column in glass tube)
Procedure: as §1
Test compositions made up of TALSTAR® TERMITICIDE/INSECTICIDE and a wettable powder of thiamethoxam in distilled water were prepared that provided appropriate rates of application of combinations of bifenthrin and thiamethoxam, as well as bifenthrin and thiamethoxam alone.
as §2, with “thiamethoxam” for “imidacloprid”

[4] = Rate of Appln. 10 PPM (0.001 % by weight)
[5] = Rate of Appln. 50 PPM (0.005 % by weight)

SMILES: Cc1c(COC(=O)[C@@H]2[C@H](/C=C(\Cl)C(F)(F)F)C2(C)C)cccc1-c1ccccc1 (racemic) [A, bifenthrin]
- Mortality Rate @ 1 Day [1, 4]: 13%
- Mortality Rate @ 1 Hour [1, 4]: 0%
- Mortality Rate @ 2 Days [1, 4]: 24%
- Mortality Rate @ 2 Hours [1, 4]: 0%
- Mortality Rate @ 7 Days [1, 4]: 95%
- Mortality Rate @ 1 Day [1, 5]: 21%
- Mortality Rate @ 1 Hour [1, 5]: 0%
- Mortality Rate @ 2 Days [1, 5]: 78%
- Mortality Rate @ 2 Hours [1, 5]: 0%
- Mortality Rate @ 7 Days [1, 5]: 100%
- Mortality Rate @ 1 Day [2, 4]: 13%
- Mortality Rate @ 1 Hour [2, 4]: 0%
- Mortality Rate @ 2 Days [2, 4]: 24%
- Mortality Rate @ 2 Hours [2, 4]: 0%
- Mortality Rate @ 7 Days [2, 4]: 95%
- Mortality Rate @ 1 Day [2, 5]: 21%
- Mortality Rate @ 1 Hour [2, 5]: 0%
- Mortality Rate @ 2 Days [2, 5]: 78%
- Mortality Rate @ 2 Hours [2, 5]: 0%
- Mortality Rate @ 7 Days [2, 5]: 100%
- Mortality Rate @ 1 Day [3, 4]: 3%
- Mortality Rate @ 1 Hour [3, 4]: 0%
- Mortality Rate @ 2 Days [3, 4]: 5%
- Mortality Rate @ 2 Hours [3, 4]: 0%
- Mortality Rate @ 7 Days [3, 4]: 100%
- Mortality Rate @ 1 Day [3, 5]: 10%
- Mortality Rate @ 1 Hour [3, 5]: 0%
- Mortality Rate @ 2 Days [3, 5]: 65%
- Mortality Rate @ 2 Hours [3, 5]: 0%
- Mortality Rate @ 7 Days [3, 5]: 100%
